Data published in patent US20260176253A1 (priority 2021, published 2026).

Tests used:
[1] = target: T1, 5-HT2A (Homo sapiens, UniProt P28223); assay: Serotonin 5-HT2A in vitro cellular IPOne agonism assay (HTRF); type: cell-based; set-up: host or cells: CHO-K1; conditions: CHO-K1 cells, 60 min
Procedure: (§1) Serotonin 5-HT2AIn Vitro Cellular IPOne Agonism Assay. The 5-HT2AIPOne HTRF assay was performed at Epics Therapeutics S. A. (Belgium, FAST-0505I) using conventional methods. Briefly, CHO—K1 cells expressing human recombinant 5-HT2A receptor grown to mid-log phase in culture media without antibiotics were detached with PBS-EDTA, centrifuged, and resuspended in medium without antibiotics buffer. 20,000 cells were distributed in a 96 well plate and incubated overnight at 37° C. with 5% Co2.
For agonist testing, the medium was removed and 20 μl of assay buffer plus 20 μl of test compound or reference agonist were added in each well. The plate was incubated for 60 min. at 37° C. with 5% CO2.
(§2) After addition of the lysis buffer containing IP1-d2 and anti-IP1 cryptate detection reagents, plates were incubated 1-hour at room temperature, and fluorescence ratios were measured according to the manufacturer specification, with the HTRF kit.

[2] = target: T1, 5-HT2A; assay: Serotonin 5-HT2A in vitro radioligand binding competition assay ([3H]-DOI); set-up: purchased Epics Therapeutics S. A. (Belgium), contract assay FAST-0505B; host or cells: membrane extracts; conditions: [3H]-DOI competition, membrane extracts; read-out: 5HT2A R[…] ACTIVITY
Procedure: Serotonin 5-HT2AIn Vitro Radioligand Binding Competition Assay. The 5-HT2A radioligand binding competition assay was performed at Epics Therapeutics S. A. (Belgium, FAST-0505B) using conventional methods. Briefly, competition binding is performed in duplicate in the wells of a 96 well plate (Master Block, Greiner, 786201) containing binding buffer (optimized for each receptor), membrane extracts (amount of protein/well optimized for each receptor), radiotracer [3H]-DOI (final concentration optimized for each receptor) and test compound. Nonspecific binding was determined by co-incubation with 200-fold excess of cold competitor. The samples were incubated in a final volume of 0.1 ml at a temperature and for a duration optimized for each receptor and then filtered over filter plates. Filters were washed six times with 0.5 ml of ice-cold washing buffer (optimized for each receptor) and 50 µl of Microscint 20 (Packard) were added in each well. The plates were incubated 15 min on an orbital shaker and then counted with a TopCount™ for 1 min/well.

[3] = tested on: rat cortical neurons; assay: Neurite outgrowth in primary neuronal cultures assay; type: cell-based; set-up: key: A: Statistically significant mean increase as a percent of DMSO control at 10 μM or less; B: No statistically significant mean increase as a percent of DMSO control at 10 μM or less; conditions: 72h, vs DMSO control, 10 μM or less
Description: Neurite Outgrowth Assay. Neurite Outgrowth in Primary Neuronal Cultures Assay. Changes in the pattern of neurite outgrowth have been implicated in psychiatric and neurodegenerative disorders as well as traumatic injuries. The discovery of new compounds that can positively affect neuritogenesis are important for developing new therapeutics for neurological diseases. Measurement of neurite outgrowth of rat cortical neurons using an automated image-based assay was used to determine the neuroplastic effects of the compounds of the present disclosure. The neurite outgrowth assay was performed at Neurofit SAS (France) as described below.
Pregnant Wistar rats (Janvier; France) were used for the study. They were delivered 6 days before their use. Upon arrival at Neurofit animal facility, they were housed one per cage and maintained in a room with controlled temperature (21-22° C.) and a reversed light-dark cycle (12 h/12h; lights on: 17:30-05:30; lights off: 05:30-17:30) with food and water available ad libitum.
Female Wistar rats of 17 days gestation were killed by cervical dislocation and the fetuses were removed from the uterus. Their brains were placed in ice-cold medium of Leibovitz (L15, Gibco, Fisher bioblock, France). Cortices were dissected and meninges were carefully removed. The cortical neurons were dissociated by trypsinization for 30 min at 37° C. (trypsin-EDTA, Gibco) in presence of 0.1 mg/ml DNAse I (Roche, France). The reaction was stopped by addition of Dulbecco's Modified Eagle Medium (DMEM; Gibco) with 10% of fetal bovine serum (FBS; Gibco). The suspension was triturated with a 10-ml pipette and using a needle syringe 21G and centrifuged at 350×g for 10 min at room temperature. The pellet of dissociated cells was resuspended in a medium consisting of Neurobasal (Gibco) supplemented with 2% B27 supplement (Gibco), 0.5 mM L-Glutamine (Gibco), an antibiotic-antimicotic mixture. Viable cells were counted in a Neubauer cytometer using the trypan blue exclusion test (Sigma). Cells were seeded at a density of 10000 cells per well in 96-well plate (Costar) precoated with poly-L-lysine. Test compound at different concentrations were added to the cultures. Donepezil (positive control) was tested at 250 nM.
After 72h (3 days) of plating, cultures were fixed with paraformaldehyde in PBS (4%, Sigma) for 30 min at 4° C. Then, cells were successively permeabilized with 0.1% Triton X100 for 30 min, saturated with PBS containing 3% of BSA and were incubated 1 h with anti-beta III tubulin antibody (Sigma) at 1/10 000 in PBS containing 0.5% of BSA. Cells were washed three times with PBS containing 0.5% of BSA, and they were incubated 1 h with goat anti-mouse antibody coupled with AF488 (Invitrogen A11001) diluted at 1/1000 in PBS containing 0.5% of BSA. Finally, nuclei were staining with DAPI 1 mg/ml at 1/1000 in PBS containing 0.5% of BSA. After rinsing with PBS, the plate was filmed and neurite networks were examined and analyzed using High-Content Screening (CellInsight, Thermo Scientific). The average number of neurites per neuron and the average total length of neurites per neuron were the main parameters analyzed. Analysis of data was performed using analysis of variance (ANOVA). The Fisher's Protected Least Significant Difference test was used for multiple comparisons. A p value ≤0.05 was considered significant. The software used is StatView 5.0 from SAS Institut.

[4] = target: T1, 5-HT2A; assay: Serotonin 5-HT2A in vitro cellular IPOne antagonism assay (HTRF); type: cell-based; set-up: host or cells: CHO-K1; conditions: CHO-K1 cells, reference agonist a-Me-5HT
Procedure: as §1, with “Antagonism” for “Agonism”, “FAST-0505I) in antagonism mode” for “FAST-0505I)”
For antagonist testing, a reference agonist a-Me-5HT was added and fluorescence signal monitored for several minutes, followed by addition of 20 μl of assay buffer plus 20 μl of test compound or reference antagonist ketanserin, in each well. The plate was incubated for 60 min. at 37° C. with 5% CO2.
as §2

T1 sequence (P28223 whole entry): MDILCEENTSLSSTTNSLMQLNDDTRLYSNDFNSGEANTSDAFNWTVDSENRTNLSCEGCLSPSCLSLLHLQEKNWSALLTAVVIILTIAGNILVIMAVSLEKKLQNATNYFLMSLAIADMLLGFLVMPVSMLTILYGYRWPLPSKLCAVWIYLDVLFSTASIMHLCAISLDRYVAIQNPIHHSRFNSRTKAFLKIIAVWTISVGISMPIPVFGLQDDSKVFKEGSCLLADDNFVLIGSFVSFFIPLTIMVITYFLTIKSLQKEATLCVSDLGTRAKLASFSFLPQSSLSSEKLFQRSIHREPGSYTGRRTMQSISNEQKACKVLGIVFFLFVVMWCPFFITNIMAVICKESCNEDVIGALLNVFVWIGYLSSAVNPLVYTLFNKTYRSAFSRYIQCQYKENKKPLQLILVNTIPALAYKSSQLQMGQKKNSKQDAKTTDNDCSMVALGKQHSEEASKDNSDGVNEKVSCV

SMILES	EC50 [1] [nM]	IC50 [2] [nM]	INCREASE IN NEURITE BRANCHING [3]	INCREASE IN NEURITE LENGTH [3]	INCREASE IN NEURITE NUMBER [3]	IC50 [4] [nM]
FC(F)(F)Oc1ccc2c3c([nH]c2c1)CC1CCCN1CC3 (centres unmarked) [Compound 13, 9-(trifluoromethoxy)-1,2,3,5,6,11,12,12a-octahydropyrrolo[1′,2′;1,2]azepino[4,5-b]indole]	> 10000	1000 to 10000	B	A	B	101 to 1000
COc1ccc2c3c([nH]c2c1)C[C@@H]1CCCN1CC3 [Compound 17, (S)-9-methoxy-1,2,3,5,6,11,12,12a-octahydropyrrolo[1′,2′:1,2]azepino[4,5-b]indole]	> 10000	> 10000	A	A	A	> 10000
c1ccc2c3c([nH]c2c1)CCN1CCC[C@H]1C3 [Compound 23, (S)-1,2,3,5,6,7,12,12a-octahydropyrrolo[1′,2′:1,7]azepino[4,5-b]indole]	> 10000	101 to 1000	A	A	A	10 to 100
c1ccc2c3c([nH]c2c1)CC1CCCN1CC3 (centres unmarked) [Compound 4, 1,2,3,5,6,11,12,12a-octahydropyrrolo[1′,2′;1,2]azepino[4,5-b]indole]	101 to 1000	101 to 1000	A	A	A	101 to 1000
COc1cccc2[nH]c3c(c12)C[C@H]1CCCN1CC3 [Compound 26, (R)-11-methoxy-1,2,3,5,6,7,12,12a-octahydropyrrolo[1′,2′:1,7]azepino[4,5-b]indole]	10 to 100	101 to 1000	A	A	A	< 10
COc1ccc2c3c([nH]c2c1)CCN1CCCC1C3 (centres unmarked) [Compound 1, 9-methoxy-1,2,3,5,6,7,12,12a-octahydropyrrolo[1′,2′:1,7]azepino[4,5-b]indole]	> 10000	1000 to 10000	B	B	B	
COc1ccc2c3c([nH]c2c1)CCN1CCC[C@@H]1C3 [Compound 24, (R)-9-methoxy-1,2,3,5,6,7,12,12a-octahydropyrrolo[1′,2′:1,7]azepino[4,5-b]indole]	> 10000	1000 to 10000	A	A	A	101 to 1000
COc1ccc2c3c([nH]c2c1)CC1CCCN1CC3 (centres unmarked) [Compound 2, 9-methoxy-1,2,3,5,6,11,12,12a-octahydropyrrolo[1′,2′:1,2]azepino[4,5-b]indole]	> 10000	> 10000	A	A	B	
c1ccc2c3c([nH]c2c1)C[C@@H]1CCCN1CC3 [Compound 19, (S)-1,2,3,5,6,11,12,12a-octahydropyrrolo[1′,2′:1,2]azepino[4,5-b]indole]	101 to 1000	101 to 1000	A	A	A	101 to 1000
FC(F)(F)c1ccc2c3c([nH]c2c1)CC1CCCN1CC3 (centres unmarked) [Compound 12, 9-(trifluoromethyl)-1,2,3,5,6,11,12,12a-octahydropyrrolo[1′,2′:1,2]azepino[4,5-b]indole]	> 10000	1000 to 10000	A	A	B	
COc1cccc2[nH]c3c(c12)CC1CCCN1CC3 (centres unmarked) [Compound 5, 11-methoxy-1,2,3,5,6,7,12,12a-octahydropyrrolo[1′,2′:1,7]azepino[4,5-b]indole]	1000 to 10000	1000 to 10000	B	A	B	
